ChEMBL document CHEMBL1862790, “Optimisation of fenarimol series for the treatment of Chagas disease”
Values joined by “and” are separate entries in the source; they are usually repeats but may differ in a detail not shown here. Equal values may be shown once.

What was measured:
Trypanosoma cruzi [1] = assay: microbe, parasite or virus in culture; assay type: functional, organism-based, Tulahuen LacZ, Clone C4
[2] = DNDI: Cytotoxicity against L-6 rat myoblasts from skeletal muscle cells; conditions: L6 rat skeletal muscle myoblast cells
Trypanosoma cruzi [3] = assay: microbe, parasite or virus in culture; assay type: functional, Tulahuen LacZ, Clone C4
[4] = Trypanosoma cruzi, Tulahuen LacZ, Clone C4

SMILES	IC50 (Trypanosoma cruzi [1]; [4]) [nM]	IC50 ([2]; IC50) [nM]	IC90 (Trypanosoma cruzi [3]; [4]) [nM]	IC50 [2] [nM]	IC50 (Trypanosoma cruzi [1])	IC90 (Trypanosoma cruzi [3])
Clc1ccc(C(c2cccnc2)N2CCCCC2)cc1 (stereo unspecified)	180	> 100000	450	–	–	–
Cc1ccccc1C(O)(c1ccc(Cl)cc1)c1cccnc1 (stereo unspecified)	370	–	2780	62000	–	–
CC(C)CC(O)(c1ccc(Cl)cc1)c1cncnc1 (stereo unspecified)	1150	> 100000	10000	–	–	–
CN1CCN(C(c2ccc(Cl)cc2)c2cccnc2)CC1 (stereo unspecified)	> 1000	> 100000	> 1000	–	–	–
CON=C(Cc1ccccc1)c1ccc(Cl)cc1	> 10000	70200	> 10000	–	–	–
OC(c1ccc(Cl)cc1)(c1ncccn1)c1ccccc1Cl (stereo unspecified)	22900	> 100000	66000	–	–	–
CON=C(Cc1ccccc1C)c1cccnc1	> 1000	> 100000	> 1000	–	–	–
OC(c1ccc(C(F)(F)F)cc1)(c1cncnc1)c1ccccc1Cl (stereo unspecified)	250	> 100000	20000	–	–	–
OC(c1ccc(C(F)(F)F)cc1)(c1ccc(C(F)(F)F)cc1)c1cc2ccccc2[nH]1	3980	11600	7590	–	–	–
OC(c1cccnc1)(c1cccs1)c1ccccc1Cl (stereo unspecified)	345	> 100000	670	–	–	–
OC(c1ccc(Cl)cc1)(c1cccnc1)c1nccs1 (stereo unspecified)	201	> 100000	505	–	–	–
FC(c1ccc(Cl)cc1)(c1cccnc1)c1ccccc1Cl (stereo unspecified)	170	59700	1000	–	–	–
OC(c1ccc(Cl)cc1)(c1ccncn1)c1ccccc1Cl (stereo unspecified)	7050	–	8570	> 100000	–	–
CCCC=C(c1ccc(Cl)cc1)c1cccnc1	75	79400	380	–	–	–
Cc1cccc(C(O)(c2ccc(Cl)cc2)c2cncnc2)c1 (stereo unspecified)	328	68400	5230	–	–	–
CCN1CCN(C(c2ccc(Cl)cc2)c2cccnc2)CC1 (stereo unspecified)	> 1000	> 100000	> 1000	–	–	–
OC(c1ccc(Cl)cc1)(c1cncnc1)c1cccs1 (stereo unspecified)	70	> 100000	76000	–	–	–
CCCCC(O)(c1ccc(Cl)cc1)c1cnccn1 (stereo unspecified)	330	> 100000	3000	–	–	–
Cc1noc(C)c1C(=O)N1CCC(NC(c2ccc(C(F)(F)F)cc2)c2cccnc2)CC1 (stereo unspecified)	20	> 100000	–	–	36.5 nM	46 nM and 96 nM
CCCCc1ccc(C(O)(c2ccc(Cl)cc2)c2ccc(Cl)cc2)cn1	> 1000	54700	> 1000	–	–	–
OC(c1ccc(Cl)cc1)(c1cccnc1)c1ccsc1 (stereo unspecified)	78	> 100000	154	–	–	–
O=C(c1ccc(Cl)cc1)c1ccccc1Cl	> 10000	> 100000	10000	–	–	–
CC(=O)N1CCN(C(c2ccc(Cl)cc2)c2cccnc2)CC1 (stereo unspecified)	–	> 100000	960	–	490 nM [middle of 4 runs]	820 nM and 930 nM and 520 nM
OC(c1cccnc1)(c1cccc(C(F)(F)F)c1)c1ccccc1Cl (stereo unspecified)	446	–	749	58000	–	–
CC(C)(C)NC(=O)N1CCC(NC(c2ccc(C(F)(F)F)cc2)c2cccnc2)CC1 (stereo unspecified)	48	> 100000	402	–	61 nM	207 nM

SMILES	IC50 (Trypanosoma cruzi [1]; [4]) [nM]	IC50 ([2]; IC50) [nM]	IC90 (Trypanosoma cruzi [3]; [4]) [nM]	IC50 [2] [nM]	IC50 (Trypanosoma cruzi [1])	IC90 (Trypanosoma cruzi [3])
OC(c1cncnc1)(c1ccccn1)c1ccccc1Cl (stereo unspecified)	7330	> 100000	15500	–	–	–
O=C(c1ccc(F)cc1)c1ccc(Cl)cc1	> 10000	> 100000	10000	–	–	–
Cn1cccc1C(O)(c1ccc(Cl)cc1)c1ccc(Cl)cc1	> 10000	55800	> 10000	–	–	–
CON=C(c1ccc(Cl)cc1)c1ccc(Cl)cc1	> 10000	> 100000	10000	–	–	–
CON=C(Cc1ccccc1)c1cccnc1	> 1000	> 100000	> 1000	–	–	–
OC(c1cncnc1)(c1ccccc1F)c1ccccc1Cl (stereo unspecified)	2640	> 100000	9370	–	–	–
O=C(C1CC1)N1CCN(C(c2cncnc2)c2ccc(Cl)cc2F)CC1 (stereo unspecified)	180	> 100000	–	–	171 nM	306 nM and 614 nM
CC(C)CNC(c1ccc(Cl)cc1)c1cccnc1 (stereo unspecified)	200	> 100000	430	–	–	–
CS(=O)(=O)N1CCN(C(c2cccnc2)c2ccc(Cl)cc2F)CC1 (stereo unspecified)	–	> 100000	–	–	35 nM and 46 nM	160 nM and 110 nM
NC(=O)c1cccc(C(O)(c2ccc(Cl)cc2)c2cccnc2)c1 (stereo unspecified)	–	> 100000	–	–	30 nM and 78 nM	100 nM and 320 nM
Cc1ccsc1C(O)(c1ccc(Cl)cc1)c1ccc(Cl)cc1	> 10000	58800	> 10000	–	–	–
OC(c1ccc(Cl)cc1)(c1ccc(Cl)cc1)c1cc(-c2ccccc2)on1	> 10000	53600	> 10000	–	–	–
OC(c1ccc(Cl)cc1)(c1cccnc1)c1cncnc1 (stereo unspecified)	1530	> 100000	59000	–	–	–
COc1ccc(C(O)(c2cncnc2)c2ccccc2Cl)cc1 (stereo unspecified)	393	70900	60000	–	–	–
Nc1nccnc1C(O)(c1ccc(Cl)cc1)c1ccc(Cl)cc1	> 10000	63400	> 10000	–	–	–
O=C(NC1CCN(C(c2ccc(C(F)(F)F)cc2)c2cnccn2)CC1)C1CC1 (stereo unspecified)	660	> 100000	> 1000	–	575 nM	1290 nM
CC(C)CC(O)(c1ccc(Cl)cc1)c1cnccn1 (stereo unspecified)	139	> 100000	337	–	–	–
OC(c1ccc(Cl)cc1)(c1cccnc1)c1c(F)cccc1Cl (stereo unspecified)	172	–	469	66900	–	–
OC(c1ccc(Cl)cc1)(c1cccnc1)c1cnc(Cl)nc1 (stereo unspecified)	–	> 100000	–	–	163 nM and 480 nM	339 nM and 850 nM
OC(CC1CCCCC1)(c1ccc(Cl)cc1)c1cncnc1 (stereo unspecified)	154	64700	368	–	–	–
N#Cc1ccc(C(c2cccnc2)N2CCC(NC(=O)c3ccccc3C(F)(F)F)CC2)cc1 (stereo unspecified)	4.5	> 100000	12	–	4 nM	15.5 nM
OC(c1ccc(Cl)cc1)(c1cncnc1)c1ccccc1F (stereo unspecified)	140	> 100000	820	–	–	–
N#Cc1ccc(C(c2cccnc2)N2CCC(NC(=O)c3c(F)cccc3F)CC2)cc1 (stereo unspecified)	21.5	> 100000	48	–	18.5 nM	55.5 nM
CON=C(C)c1cccnc1	> 10000	–	> 10000	> 100000	–	–
OC(c1ccc(Cl)cc1)(c1cccnc1)c1ccc(Cl)cc1Cl (stereo unspecified)	15	–	52.2	53100	–	–

SMILES	IC50 (Trypanosoma cruzi [1]; [4]) [nM]	IC50 ([2]; IC50) [nM]	IC90 (Trypanosoma cruzi [3]; [4]) [nM]	IC50 [2] [nM]	IC50 (Trypanosoma cruzi [1])	IC90 (Trypanosoma cruzi [3])
OC(c1cccnc1)(c1cncnc1)c1ccccc1Cl (stereo unspecified)	7820	> 100000	10000	–	–	–
CCCCOC(c1ccc(Cl)cc1)c1cccnc1 (stereo unspecified)	124	62600	296	–	–	–
OC(c1ccc(Cl)cc1)(c1ccc(Cl)cc1)c1ccco1	> 10000	48000	> 10000	–	–	–
CCCCC(O)(c1ccc(Cl)cc1)c1cncnc1 (stereo unspecified)	500	> 100000	1890	–	–	–
OC(c1ccccc1)(c1cncnc1)c1ccccc1Cl (stereo unspecified)	2510	> 100000	70000	–	–	–
OC(c1cccnc1)(c1ccsc1)c1ccccc1Cl (stereo unspecified)	509	> 100000	875	–	–	–
O/N=C(\c1ccc(Cl)cc1)c1ccccc1Cl	46400	54900	93000	–	–	–
Cc1cc(C(=O)NC2CCN(C(c3ccc(C#N)cc3)c3cccnc3)CC2)n(C)n1 (stereo unspecified)	58	> 100000	130	–	46.5 nM	97.5 nM
N#Cc1ccc(C(O)(c2ccc(C(F)(F)F)cc2)c2cccnc2)cc1 (stereo unspecified)	12	63300	32	–	18 nM	33 nM
Cc1ccc(C(O)(c2ccc(Cl)cc2)c2cccnc2)s1 (stereo unspecified)	24	> 100000	67	–	–	–
OC(c1ccc(Cl)cc1)(c1ccccn1)c1ccccc1Cl (stereo unspecified)	27400	–	90000	> 100000	–	–
CCCCC(O)(c1ccc(Cl)cc1)c1cccnc1 (stereo unspecified)	29	60900	103	–	–	–
Clc1ccc(C(c2cncnc2)c2ccccc2Cl)cc1 (stereo unspecified)	1070	> 100000	80000	–	–	–
COc1ccccc1C(O)(c1ccc(Cl)cc1)c1cncnc1 (stereo unspecified)	1140	> 100000	8700	–	–	–
OC(c1ccc(Cl)cc1)(c1cccnc1)c1sccc1Cl (stereo unspecified)	28	70100	72	–	–	–
Clc1ccc(C(NCCN2CCOCC2)(c2cccnc2)c2ccccc2Cl)cc1 (stereo unspecified)	654	56500	6230	–	–	–
Cc1ncsc1C(=O)N1CCC(NC(c2ccc(C(F)(F)F)cc2)c2cccnc2)CC1 (stereo unspecified)	67	> 100000	218	–	58 nM	180 nM
CS(=O)(=O)N1CCN(C(c2cncnc2)c2ccc(Cl)cc2F)CC1 (stereo unspecified)	444	> 100000	724	–	390 nM	850 nM
OC(c1ccc(Cl)cc1)(c1cnccn1)c1ccccc1Cl (stereo unspecified)	440	> 100000	7900	–	–	–
N#Cc1cccc(C(O)(c2ccc(Cl)cc2)c2cccnc2)c1 (stereo unspecified)	110	> 100000	510	–	–	–
COc1ccc(C(O)(c2cncnc2)C2CC2)cc1 (stereo unspecified)	20900	–	62500	> 100000	–	–
OC(c1ccc(Cl)cc1)(c1cncnc1)c1cccc(F)c1 (stereo unspecified)	840	> 100000	1900	–	–	–
OC(c1ccc(Cl)cc1)(c1cncnc1)c1cccc(Cl)c1 (stereo unspecified)	513	57200	10000	–	–	–
CC(C)C(O)(c1ccc(Cl)cc1)c1cncnc1 (stereo unspecified)	2240	> 100000	21000	–	–	–
